A value given as a limit tells only on which side of the number the result lay.

The values below come from patent US20240317721A1, “PYRAZOLYL DERIVATIVES AS INHIBITORS OF THE KRAS MUTANT PROTEIN” (NOVARTIS AG, priority 2021, published 2024).

For this assay, the target named is KRasG12C (M1-K169, biotinylated on the N-terminus) (Homo sapiens (Human), UniProt P01116, G12C). Put plainly: Covalent competition assay: scintillation proximity assay (SPA) quantifying covalent modification of KRASG12C. As to conditions: competition with radiolabeled covalent probe (Compound B/Compound A), 2 hours incubation, 10 nM KRasG12C. Type of assay: binding. A digest of the protocol:
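Test compounds compete with a radiolabeled covalent probe for modification of N-terminally biotinylated KRasG12C(M1-K169):GDP, final 10 nM protein, 25 nM radio-ligand, 475 nM unlabelled ligand, 2 h with agitation in 20 mM Tris-HCl pH 7.5, 150 mM NaCl, 0.1 mM MgCl2, 0.01% Tween-20.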
Consider `C=CC(=O)N1CC2(CC(n3nc(N4CC[C@@H](CN5CC6C5CCN6C5COC5)CC4(C)C)c(-c4c(Cl)c(Cl)cc5[nH]ncc45)c3C)C2)C1` (single isomer, unassigned) [Example 277b, 1-(6-(4-(5,6-dichloro-1H-indazol-4-yl)-3-((R)-2,2-dimethyl-4-(((1S*,5S*)-2-(oxetan-3-yl)-2,6-diazabicyclo[3.2.0]heptan-6-yl)methyl)piperidin-1-yl)-5-methyl-1H-pyrazol-1-yl)-2-azaspiro[3.3]heptan-2-yl)prop-2-en-1-one], for which the IC50 is less than 5 nM.

`C=CC(=O)N1CC2(CC(n3nc(N4CC[C@@H](CN5CC6C5CCN6C5COC5)CC4(C)C)c(-c4c(Cl)c(Cl)cc5[nH]ncc45)c3C)C2)C1` (single isomer, unassigned) [Example 278a, 1-(6-(4-(5,6-dichloro-1H-indazol-4-yl)-3-((R)-2,2-dimethyl-4-(((1S*,5S*)-2-(oxetan-3-yl)-2,6-diazabicyclo[3.2.0]heptan-6-yl)methyl)piperidin-1-yl)-5-methyl-1H-pyrazol-1-yl)-2-azaspiro[3.3]heptan-2-yl)prop-2-en-1-one]: the IC50 was greater than 5000 nM.

For the compound `C=CC(=O)N1CC2(CC(n3nc(N4CC[C@@H](CN5CC6C5CCN6C5COC5)CC4(C)C)c(-c4c(Cl)c(Cl)cc5[nH]ncc45)c3C)C2)C1` (single isomer, unassigned) [Example 278b, 1-(6-(4-(5,6-dichloro-1H-indazol-4-yl)-3-((R)-2,2-dimethyl-4-(((1S*,5S*)-2-(oxetan-3-yl)-2,6-diazabicyclo[3.2.0]heptan-6-yl)methyl)piperidin-1-yl)-5-methyl-1H-pyrazol-1-yl)-2-azaspiro[3.3]heptan-2-yl)prop-2-en-1-one], the IC50 was determined as 8 nM.

Regarding `C=CC(=O)N1CC2(CC(n3nc(N4CC[C@@H](CN5CCN6CCOC[C@@H]6C5)CC4(C)C)c(-c4c(Cl)c(Cl)cc5[nH]ncc45)c3C)C2)C1` (single isomer, unassigned) [Example 279a], the IC50 is 3800 nM.

In the case of `C=CC(=O)N1CC2(CC(n3nc(N4CC[C@@H](CN5CCN6CCOC[C@@H]6C5)CC4(C)C)c(-c4c(Cl)c(Cl)cc5[nH]ncc45)c3C)C2)C1` (single isomer, unassigned) [Example 279b], the IC50 was found to be 6 nM.

On to `C=CC(=O)N1CC2(CC(n3nc(N4CC[C@@H](CN5CCN(C6COC6)C6COCC65)CC4(C)C)c(-c4c(Cl)c(Cl)cc5[nH]ncc45)c3C)C2)C1` (single isomer, unassigned) [Example 280a, 1-(6-(4-(5,6-dichloro-1H-indazol-4-yl)-3-((R)-2,2-dimethyl-4-(((4aS*,7aR*)-4-(oxetan-3-yl)hexahydrofuro[3,4-b]pyrazin-1(2H)-yl)methyl)piperidin-1-yl)-5-methyl-1H-pyrazol-1-yl)-2-azaspiro[3.3]heptan-2-yl)prop-2-en-1-one], for which the IC50 was greater than 5000 nM.

Consider `C=CC(=O)N1CC2(CC(n3nc(N4CC[C@@H](CN5CCN(C6COC6)C6COCC65)CC4(C)C)c(-c4c(Cl)c(Cl)cc5[nH]ncc45)c3C)C2)C1` (single isomer, unassigned) [Example 280b, 1-(6-(4-(5,6-dichloro-1H-indazol-4-yl)-3-((R)-2,2-dimethyl-4-(((4aS*,7aR*)-4-(oxetan-3-yl)hexahydrofuro[3,4-b]pyrazin-1(2H)-yl)methyl)piperidin-1-yl)-5-methyl-1H-pyrazol-1-yl)-2-azaspiro[3.3]heptan-2-yl)prop-2-en-1-one], for which the IC50 stood at 7 nM.

`C=CC(=O)N1CC2(CC(n3nc(N4CC[C@@H](CN5CCN(C6COC6)C6COCC65)CC4(C)C)c(-c4c(Cl)c(Cl)cc5[nH]ncc45)c3C)C2)C1` (single isomer, unassigned) [Example 281a, 1-(6-(4-(5,6-dichloro-1H-indazol-4-yl)-3-((R)-2,2-dimethyl-4-(((4aS*,7aR*)-4-(oxetan-3-yl)hexahydrofuro[3,4-b]pyrazin-1(2H)-yl)methyl)piperidin-1-yl)-5-methyl-1H-pyrazol-1-yl)-2-azaspiro[3.3]heptan-2-yl)prop-2-en-1-one]: the half-maximal inhibitory concentration (IC50) turned out to be 1670 nM.

In the case of `C=CC(=O)N1CC2(CC(n3nc(N4CC[C@@H](CN5CCN(C6COC6)C6COCC65)CC4(C)C)c(-c4c(Cl)c(Cl)cc5[nH]ncc45)c3C)C2)C1` (single isomer, unassigned) [Example 281b, 1-(6-(4-(5,6-dichloro-1H-indazol-4-yl)-3-((R)-2,2-dimethyl-4-(((4aS*,7aR*)-4-(oxetan-3-yl)hexahydrofuro[3,4-b]pyrazin-1(2H)-yl)methyl)piperidin-1-yl)-5-methyl-1H-pyrazol-1-yl)-2-azaspiro[3.3]heptan-2-yl)prop-2-en-1-one], the IC50 was less than 5 nM.

Turning to `C=CC(=O)N1CC2(CC(n3nc(N4CC[C@@H](CN(C5COC5)C5COC5)CC4(C)C)c(-c4c(Cl)c(Cl)cc5[nH]ncc45)c3C)C2)C1` (single isomer, unassigned) [Example 282a], the IC50 was 1500 nM.

Consider `C=CC(=O)N1CC2(CC(n3nc(N4CC[C@@H](CN(C5COC5)C5COC5)CC4(C)C)c(-c4c(Cl)c(Cl)cc5[nH]ncc45)c3C)C2)C1` (single isomer, unassigned) [Example 282b], for which the IC50 was found to be 7 nM.

On to `[2H]C1([2H])OC([2H])([2H])C([2H])([2H])N(C[C@@H]2CCN(c3nn(C4CC5(C4)CN(C(=O)C=C)C5)c(C)c3-c3c(Cl)c(Cl)cc4[nH]ncc34)C(C)(C)C2)C1([2H])[2H]` (single isomer, unassigned) [Example 283a], for which the IC50 amounted to 3000 nM.

On to `[2H]C1([2H])OC([2H])([2H])C([2H])([2H])N(C[C@@H]2CCN(c3nn(C4CC5(C4)CN(C(=O)C=C)C5)c(C)c3-c3c(Cl)c(Cl)cc4[nH]ncc34)C(C)(C)C2)C1([2H])[2H]` (single isomer, unassigned) [Example 283b], for which the IC50 was 8 nM.

Take `C=CC(=O)N1CC2(CC(n3nc(N4CC[C@@H](CN5CC6(C5)CN(C)C(=O)O6)CC4(C)C)c(-c4c(Cl)c(Cl)cc5[nH]ncc45)c3C)C2)C1` (single isomer, unassigned) [Example 284a]: the IC50 came to 1600 nM.

As for `C=CC(=O)N1CC2(CC(n3nc(N4CC[C@@H](CN5CC6(C5)CN(C)C(=O)O6)CC4(C)C)c(-c4c(Cl)c(Cl)cc5[nH]ncc45)c3C)C2)C1` (single isomer, unassigned) [Example 284b], the half-inhibitory concentration (IC50) was 8 nM.

`C=CC(=O)N1CC2(CC(n3nc(N4CC[C@@H](CN5CC6(CCCN6C(C)=O)C5)CC4(C)C)c(-c4c(Cl)c(Cl)cc5[nH]ncc45)c3C)C2)C1` (single isomer, unassigned) [Example 285a]: the IC50 turned out to be 4600 nM.

`C=CC(=O)N1CC2(CC(n3nc(N4CC[C@@H](CN5CC6(CCCN6C(C)=O)C5)CC4(C)C)c(-c4c(Cl)c(Cl)cc5[nH]ncc45)c3C)C2)C1` (single isomer, unassigned) [Example 285b]: the half-maximal inhibitory concentration (IC50) was found to be 7 nM.

`C=CC(=O)N1CC2(CC(n3nc(N4CC[C@@H](CN5C[C@H](O)C[C@H]5COC)CC4(C)C)c(-c4c(Cl)c(Cl)cc5[nH]ncc45)c3C)C2)C1` (single isomer, unassigned) [Example 286a]: the half-inhibitory concentration (IC50) stood at 1100 nM.

Take `C=CC(=O)N1CC2(CC(n3nc(N4CC[C@@H](CN5C[C@H](O)C[C@H]5COC)CC4(C)C)c(-c4c(Cl)c(Cl)cc5[nH]ncc45)c3C)C2)C1` (single isomer, unassigned) [Example 286b]: the IC50 was 7 nM.
